# Laboratory results: the supplement of paper PMC10307832
# What was measured:
# Assay in all cases: relative viability (nuclei count vs DMSO), 5 days (fraction); higher = more cells survive
# [1] = tested on: A549
# In short: (§1)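 The day after seeding in 1536-well plates, lung cancer cell lines were treated by pin tool with a single drug, or with a fixed anchor-drug dose together with five library-drug doses (not always all listed) in √10 steps. After 5 days, a combined fix-and-stain solution (final 0.05% Triton X-100, 1% formaldehyde, 1 ug/ml Hoechst) was added. Nuclei counted on 4× images gave relative viability as treated counts over vehicle counts, reported as the median of duplicate plates.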
# [2] = tested on: ABC-1
# In short: as §1
# [3] = tested on: Calu-6
# In short: as §1
# [4] = tested on: EBC-1
# In short: as §1
# [5] = tested on: EKVX
# In short: as §1
# [6] = tested on: IA-LM
# In short: as §1
# [7] = tested on: NCI-H1299
# In short: as §1
# [8] = tested on: NCI-H1623
# In short: as §1
# [9] = tested on: NCI-H1703
# In short: as §1
# [10] = tested on: NCI-H2126
# In short: as §1
# [11] = tested on: NCI-H1648
# In short: as §1
# [12] = tested on: NCI-H522
# In short: as §1
structure (smiles),measurement,setting,value
O=C(O)c1ccc(-c2c[nH]c3ncc(-c4ccccc4)cc23)cc1C1CCCC1 + COc1cc2c(Oc3ccc(NC(=O)C4(C(=O)Nc5ccc(F)cc5)CC4)cc3F)ccnc2cc1OCCCN1CCOCC1 [Foretinib] (partner 0.25 µM),relative viability,[1]; first compound 0.04 µM,0.944
same,relative viability,[1]; first compound 0.1265 µM,1.07
same,relative viability,[1]; first compound 0.4 µM,1.07
same,relative viability,[1]; first compound 1.265 µM,0.628
same,relative viability,[2]; first compound 0.04 µM,1.02
same,relative viability,[2]; first compound 0.1265 µM,1.24
same,relative viability,[2]; first compound 0.4 µM,1.04
same,relative viability,[2]; first compound 1.265 µM,0.936
same,relative viability,[3]; first compound 0.04 µM,0.872
same,relative viability,[3]; first compound 0.1265 µM,0.904
same,relative viability,[3]; first compound 0.4 µM,0.815
same,relative viability,[3]; first compound 1.265 µM,0.706
same,relative viability,[4]; first compound 0.04 µM,0.112
same,relative viability,[4]; first compound 0.1265 µM,0.123
same,relative viability,[4]; first compound 0.4 µM,0.119
same,relative viability,[4]; first compound 1.265 µM,0.101
same,relative viability,[5]; first compound 0.04 µM,0.826
same,relative viability,[5]; first compound 0.1265 µM,0.79
same,relative viability,[5]; first compound 0.4 µM,0.868
same,relative viability,[5]; first compound 1.265 µM,0.712
same,relative viability,[6]; first compound 0.04 µM,1.23
same,relative viability,[6]; first compound 0.1265 µM,1.25
same,relative viability,[6]; first compound 0.4 µM,1.15
same,relative viability,[6]; first compound 1.265 µM,0.864
same,relative viability,[7]; first compound 0.04 µM,1.12
same,relative viability,[7]; first compound 0.1265 µM,1.14
same,relative viability,[7]; first compound 0.4 µM,1.04
same,relative viability,[7]; first compound 1.265 µM,0.956
same,relative viability,[8]; first compound 0.04 µM,0.859
same,relative viability,[8]; first compound 0.1265 µM,0.747
same,relative viability,[8]; first compound 0.4 µM,0.835
same,relative viability,[8]; first compound 1.265 µM,0.798
same,relative viability,[9]; first compound 0.04 µM,0.381
same,relative viability,[9]; first compound 0.1265 µM,0.313
same,relative viability,[9]; first compound 0.4 µM,0.348
same,relative viability,[9]; first compound 1.265 µM,0.372
same,relative viability,[10]; first compound 0.04 µM,1.25
same,relative viability,[10]; first compound 0.1265 µM,1.12
same,relative viability,[10]; first compound 0.4 µM,1.16
same,relative viability,[10]; first compound 1.265 µM,1.2
O=C(O)c1ccc(-c2c[nH]c3ncc(-c4ccccc4)cc23)cc1C1CCCC1 + COc1cccc2cc(-c3nc([C@H]4CC[C@H](C(=O)O)CC4)n4ncnc(N)c34)[nH]c12 [OSI-027] (partner 0.5 µM),relative viability,[2]; first compound 0.04 µM,0.468
same,relative viability,[2]; first compound 0.1265 µM,0.511
same,relative viability,[2]; first compound 0.4 µM,0.418
same,relative viability,[2]; first compound 1.265 µM,0.568
same,relative viability,[5]; first compound 0.04 µM,0.736
same,relative viability,[5]; first compound 0.1265 µM,0.828
same,relative viability,[5]; first compound 0.4 µM,0.727
same,relative viability,[5]; first compound 1.265 µM,0.587
same,relative viability,[8]; first compound 0.04 µM,0.4
same,relative viability,[8]; first compound 0.1265 µM,0.455
same,relative viability,[8]; first compound 0.4 µM,0.449
same,relative viability,[8]; first compound 1.265 µM,0.432
same,relative viability,[11]; first compound 0.04 µM,0.245
same,relative viability,[11]; first compound 0.1265 µM,0.246
same,relative viability,[11]; first compound 0.4 µM,0.254
same,relative viability,[11]; first compound 1.265 µM,0.239
same,relative viability,[10]; first compound 0.04 µM,0.749
same,relative viability,[10]; first compound 0.1265 µM,0.732
same,relative viability,[10]; first compound 0.4 µM,0.827
same,relative viability,[10]; first compound 1.265 µM,0.618
same,relative viability,[12]; first compound 0.04 µM,0.756
same,relative viability,[12]; first compound 0.1265 µM,0.74
same,relative viability,[12]; first compound 0.4 µM,0.56
same,relative viability,[12]; first compound 1.265 µM,0.775
NC(=O)Nc1cc(-c2cccc(F)c2)sc1C(=O)N[C@H]1CCCNC1 [AZD7762] + COc1cc2c(Oc3ccc(NC(=O)C4(C(=O)Nc5ccc(F)cc5)CC4)cc3F)ccnc2cc1OCCCN1CCOCC1 [Foretinib] (partner 0.25 µM),relative viability,[1]; first compound 0.01 µM,1.02
same,relative viability,[1]; first compound 0.03162 µM,0.928
same,relative viability,[1]; first compound 0.1 µM,0.942
same,relative viability,[1]; first compound 0.3162 µM,0.837
same,relative viability,[1]; first compound 1 µM,0.259
same,relative viability,[2]; first compound 0.01 µM,1.22
same,relative viability,[2]; first compound 0.03162 µM,1.23
same,relative viability,[2]; first compound 0.1 µM,0.851
same,relative viability,[2]; first compound 0.3162 µM,0.402
same,relative viability,[2]; first compound 1 µM,0.212
same,relative viability,[3]; first compound 0.01 µM,0.805
same,relative viability,[3]; first compound 0.03162 µM,0.83
same,relative viability,[3]; first compound 0.1 µM,0.831
same,relative viability,[3]; first compound 0.3162 µM,0.264
same,relative viability,[3]; first compound 1 µM,0.0933
same,relative viability,[4]; first compound 0.01 µM,0.101
same,relative viability,[4]; first compound 0.03162 µM,0.0952
same,relative viability,[4]; first compound 0.1 µM,0.105
same,relative viability,[4]; first compound 0.3162 µM,0.119
same,relative viability,[4]; first compound 1 µM,0.116
same,relative viability,[5]; first compound 0.01 µM,0.64
same,relative viability,[5]; first compound 0.03162 µM,0.741
same,relative viability,[5]; first compound 0.1 µM,0.956
same,relative viability,[5]; first compound 0.3162 µM,0.387
same,relative viability,[5]; first compound 1 µM,0.522
same,relative viability,[6]; first compound 0.01 µM,1.44
same,relative viability,[6]; first compound 0.03162 µM,1.29
same,relative viability,[6]; first compound 0.1 µM,1.48
same,relative viability,[6]; first compound 0.3162 µM,1.29
same,relative viability,[6]; first compound 1 µM,0.59
same,relative viability,[7]; first compound 0.01 µM,1.09
same,relative viability,[7]; first compound 0.03162 µM,1.15
same,relative viability,[7]; first compound 0.1 µM,1.09
same,relative viability,[7]; first compound 0.3162 µM,1.07
same,relative viability,[7]; first compound 1 µM,0.622
same,relative viability,[8]; first compound 0.01 µM,0.874
same,relative viability,[8]; first compound 0.03162 µM,0.821
same,relative viability,[8]; first compound 0.1 µM,1
same,relative viability,[8]; first compound 0.3162 µM,0.96
same,relative viability,[8]; first compound 1 µM,0.664
same,relative viability,[9]; first compound 0.01 µM,0.398
same,relative viability,[9]; first compound 0.03162 µM,0.34
same,relative viability,[9]; first compound 0.1 µM,0.348
same,relative viability,[9]; first compound 0.3162 µM,0.292
same,relative viability,[9]; first compound 1 µM,0.174
same,relative viability,[10]; first compound 0.01 µM,1.23
same,relative viability,[10]; first compound 0.03162 µM,1.19
same,relative viability,[10]; first compound 0.1 µM,1.2
same,relative viability,[10]; first compound 0.3162 µM,1.28
same,relative viability,[10]; first compound 1 µM,1.26
